Tests used:
[1] = healthy volunteers, single ascending doses up to 800 mg once daily; cited from earlier work
[2] = test system: SK-HEP-1 hepatic cancer cells; assay: MTT cell viability assay, SK-HEP-1 hepatic cancer cells; format: cell-based; conditions: 72 hours, 0.01-20 μM, calculated with Compusyn software
Experimental: (§1) FIG. 1. Floxphosteridine and floxuridine anticancer activity in vitro against SK-HEP-1 hepatic cancer cells. SK-HEP-1 hepatic cancer cells were treated with various concentrations (0.01 μM-20 μM) of floxphosteridine and floxuridine for 72 hours, and cell viability was evaluated with MTT cell viability assay.
(§2) We treated three cancer cell lines with various concentrations of Floxphosteridine (compound Ic) and floxuridine for 72 hours. The structure of floxuridine is shown below:
(§3) The SK-HEP-1 and HEPG2 cell lines used in these experiments represent in vitro models for hepatic cancer. The AGS cancer cell line is an in vitro model for gastric cancer.
In FIG. 1, SK-HEP-1 hepatic cancer cells were treated with various concentrations (0.01-20 μM) of floxphosteridine and floxuridine for 72 hours, and cell viability was evaluated with the MTT assay.

[3] = test system: HEPG2 hepatic cancer cells; assay: MTT cell viability assay, HEPG2 hepatic cancer cells; format: cell-based; conditions: 72 hours, 1.0-20 μM, calculated with Compusyn software
Experimental: as §1, with “2.” for “1.”, “HEPG2” for “SK-HEP-1”, “(1.0” for “(0.01”
as §2, §3
In FIG. 2, the two compounds were tested for anticancer activity against HEPG2 hepatic cancer cells. The cells were treated with various concentrations (1.0-20 μM) of floxphosteridine and floxuridine for 72 hours, and cell viability was evaluated with the MTT assay.

AGS gastric cancer cells = assay: MTT cell viability assay, AGS gastric cancer cells; format: cell-based; conditions: 72 hours, 1.0-20 μM (0.01-20 μM), calculated with Compusyn software
Experimental: FIG. 3. Floxphosteridine and floxuridine anticancer activity in vitro against AGS gastric cancer cells. AGS gastric cancer cells were treated with various concentrations (0.01 μM-20 μM) of floxphosteridine and floxuridine for 72 hours, and cell viability was evaluated with MTT cell viability assay.
as §2, §3
In FIG. 3, the two compounds were tested for anticancer activity against AGS gastric cancer cells. The cells were treated with various concentrations (1.0-20 μM) of floxphosteridine and floxuridine for 72 hours, and cell viability was evaluated with the MTT assay.

## CC(C)OC(=O)[C@H](C)N[P@](=O)(OC[C@H]1O[C@@H](n2ccc(=O)[nH]c2=O)[C@](C)(F)[C@@H]1O)Oc1ccccc1 (racemic) [PSI-7851]
[1]
  safety and tolerability: generally safe and well tolerated, with no dose-limiting toxicities
  systemic exposure profile (pharmacokinetic results): rapid uptake of the drug by the liver and low plasma exposure to the prodrug PSI-7851

## CC(C)OC(=O)[C@H](C)N[P@](=O)(OC[C@H]1O[C@@H](n2cc(F)c(=O)[nH]c2=O)C[C@@H]1O)Oc1ccccc1 [floxphosteridine]
[2]; Homo sapiens, SK-HEP1, SK-HEP-1 cells
  IC50: 31.7 µM
[3]; Homo sapiens
  IC50: 13.3 µM
AGS gastric cancer cells; Homo sapiens
  IC50: 7.26 µM

## floxuridine
[2]; SK-HEP-1 cells
  IC50: 0.8 µM
[3]
  IC50: 10.4 µM
AGS gastric cancer cells
  IC50: 5.71 µM
